Like-named read-outs stand apart in the source and are kept apart here.
Assays:
L. major [1] = system: L. major; design: method as in ChEMBL; conditions: ref ChEMBL, cited from earlier work
L. major [2] = experiment: ChEMBL dataset of pIC50 values against L. major used for the RF model (Table S1); assay type: cell-based, Leishmania major; also: call rule not given here
[3] = ChemBL structures with pIC50 values used for Random forest model construction (Table S1)
[4] = Active/Inactive class assigned to ChemBL structures for Random forest model construction (Table S1)
[5] = ChemBL structures with pIC50 values used for Random forest model construction, L. major
[6] = Active/Inactive class assigned to the ChEMBL pIC50 value for Random forest model construction, ref ChEMBL

| SMILES | pIC50 Value (L. major [1]; [3]) | Outcome (L. major [2]; [4]) | pIC50 Value (L. major [1]; [5]) | Outcome (L. major [2]; [6]) |
| --- | --- | --- | --- | --- |
| CC(=O)C1=C(C)NC(=O)NC1c1cccc([N+](=O)[O-])c1 (stereo not shown) [CHEMBL3785264] | 5.61 | Active |  |  |
| CC1=C(C(=O)/C=C/c2ccc(Cl)cc2)C(c2ccccc2)NC(=O)N1C (stereo not shown) [CHEMBL3785670] | 5.77 | Active |  |  |
| CC(=O)C1=C(CNc2ccc(C(=O)/C=C/c3ccc(Cl)cc3)cc2)N(C)C(=O)NC1c1ccccc1 (stereo not shown) [CHEMBL3785674] | 5.97 | Active |  |  |
| CC1=C(C(=O)Nc2ccc(C(=O)/C=C/c3ccc(O)cc3)cc2)C(c2cccc(O)c2)NC(=S)N1 (stereo not shown) [CHEMBL3785704] | 5.98 | Active |  |  |
| CC(=O)C1=C(C)N(C)C(=O)NC1c1ccccc1 (stereo not shown) [CHEMBL3785882] | 5.59 | Active |  |  |
| CC1=C(C(=O)Nc2ccc(C(=O)/C=C/c3cccc([N+](=O)[O-])c3)cc2)C(c2ccc(C)cc2)NC(=S)N1 (stereo not shown) [CHEMBL3786068] | 5.90 | Active |  |  |
| COCC1=C(C(=O)OC)C(c2cccc([N+](=O)[O-])c2)NC(=O)N1 (stereo not shown) [CHEMBL3786102] | 5.53 | Active |  |  |
| CC(=O)C1=C(CNc2ccc(C(=O)/C=C/c3ccc(O)cc3)cc2)N(C)C(=O)NC1c1ccccc1 (stereo not shown) [CHEMBL3786140] | 5.98 | Active |  |  |
| CC(=O)C1=C(C)NC(=O)NC1c1cccc(C)c1 (stereo not shown) [CHEMBL3786214] | 5.44 | Active |  |  |
| CC(=O)C1=C(CNc2ccc(C(=O)/C=C/c3ccccc3)cc2)N(C)C(=O)NC1c1ccccc1 (stereo not shown) [CHEMBL3786339] | 5.94 | Active |  |  |
| CC(=O)C1=C(CNc2ccc(C(=O)/C=C/c3cccc([N+](=O)[O-])c3)cc2)N(C)C(=O)NC1c1ccccc1 (stereo not shown) [CHEMBL3786374] | 5.88 | Active |  |  |
| CC(=O)C1=C(CNc2ccc(C3=NNC(c4ccc(O)cc4)C3)cc2)N(C)C(=O)NC1c1ccccc1 (stereo not shown) [CHEMBL3786468] | 6.02 | Active |  |  |
| CC1=C(C(=O)Nc2ccc(C(=O)/C=C/c3ccc(O)cc3)cc2)C(c2ccc(C)cc2)NC(=S)N1 (stereo not shown) [CHEMBL3786661] | 5.96 | Active |  |  |
| CCOC(=O)C1=C(C)NC(=S)NC1c1ccc(C)cc1 (stereo not shown) [CHEMBL3786732] | 5.66 | Active |  |  |
| CC1=C(C(=O)Nc2ccc(C(=O)/C=C/c3cccc([N+](=O)[O-])c3)cc2)C(c2cccc(O)c2)NC(=S)N1 (stereo not shown) [CHEMBL3786907] | 5.95 | Active |  |  |
| CC(=O)C1=C(CNc2ccc(C(=O)/C=C/c3ccc(N(C)C)cc3)cc2)N(C)C(=O)NC1c1ccccc1 (stereo not shown) [CHEMBL3787141] | 5.86 | Active |  |  |
| CC1=C(C(=O)/C=C/c2ccc(O)cc2)C(c2ccccc2)NC(=O)N1C (stereo not shown) [CHEMBL3787563] | 5.77 | Active |  |  |
| CCCCCCCCCC(=O)OCCc1ccc(O)cc1 [CHEMBL3960630] |  |  | 4.19 | Inactive |
| COc1ccccc1-c1nnc(-c2ccc(C(=O)N/N=C/c3cc(O)ccc3O)cc2)o1 [CHEMBL4059674] | 5.35 | Active |  |  |
| COc1ccccc1-c1nnc(-c2ccc(C(=O)N/N=C/c3ccc(Cl)cc3)cc2)o1 [CHEMBL4060153] |  |  | 4.47 | Inactive |
| COc1ccccc1-c1nnc(-c2ccc(C(=O)N/N=C/c3ccccc3F)cc2)o1 [CHEMBL4060698] |  |  | 5.29 | Active |
| COc1ccccc1-c1nnc(-c2ccc(C(=O)N/N=C/c3cccc(O)c3O)cc2)o1 [CHEMBL4065149] | 5.85 | Active |  |  |

| SMILES | pIC50 Value (L. major [1]; [3]) | Outcome (L. major [2]; [4]) | pIC50 Value (L. major [1]; [5]) | Outcome (L. major [2]; [6]) |
| --- | --- | --- | --- | --- |
| COc1ccccc1-c1nnc(-c2ccc(C(=O)N/N=C/c3ccc([N+](=O)[O-])cc3)cc2)o1 [CHEMBL4067171] |  |  | 4.25 | Inactive |
| COc1ccccc1-c1nnc(-c2ccc(C(=O)N/N=C/c3ccc(Cl)cc3Cl)cc2)o1 [CHEMBL4068809] |  |  | 5.29 | Active |
| COc1ccc(/C=N/NC(=O)c2ccc(-c3nnc(-c4ccccc4OC)o3)cc2)cc1O [CHEMBL4069376] |  |  | 5.19 | Active |
| COc1ccccc1-c1nnc(-c2ccc(C(=O)N/N=C/c3ccccn3)cc2)o1 [CHEMBL4069827] |  |  | 5.04 | Active |
| COc1ccccc1-c1nnc(-c2ccc(C(=O)N/N=C/c3cccc(F)c3)cc2)o1 [CHEMBL4072092] |  |  | 5.20 | Active |
| COc1ccccc1-c1nnc(-c2ccc(C(=O)N/N=C/c3ccccc3C)cc2)o1 [CHEMBL4072556] |  |  | 4.47 | Inactive |
| COc1ccccc1-c1nnc(-c2ccc(C(=O)N/N=C/c3ccccc3O)cc2)o1 [CHEMBL4074817] | 5.38 | Active |  |  |
| O=[N+]([O-])c1cn2c(n1)OC[C@H](Oc1ccc(OC(F)(F)F)cc1)C2 [CHEMBL4078293] | 5.63 | Active |  |  |
| COc1ccccc1-c1nnc(-c2ccc(C(=O)N/N=C/c3ccc(C)cc3)cc2)o1 [CHEMBL4079056] |  |  | 4.53 | Inactive |
| COc1ccccc1-c1nnc(-c2ccc(C(=O)N/N=C/c3c(O)cc(O)cc3O)cc2)o1 [CHEMBL4080097] | 5.32 | Active |  |  |
| COc1ccccc1-c1nnc(-c2ccc(C(=O)N/N=C/c3ccncc3)cc2)o1 [CHEMBL4080524] |  |  | 4.41 | Inactive |
| COc1ccc(O)c(/C=N/NC(=O)c2ccc(-c3nnc(-c4ccccc4OC)o3)cc2)c1 [CHEMBL4082571] |  |  | 4.79 | Inactive |
| O/N=C1/c2ccccc2OC(c2ccc(Cl)cc2)C1n1ccnc1 (stereo not shown) [CHEMBL4083146] | 6.22 | Active |  |  |
| COc1ccccc1-c1nnc(-c2ccc(C(=O)N/N=C/c3ccc(O)cc3)cc2)o1 [CHEMBL4085064] |  |  | 5.13 | Active |
| COc1ccccc1-c1nnc(-c2ccc(C(=O)N/N=C/c3cccc([N+](=O)[O-])c3)cc2)o1 [CHEMBL4086911] |  |  | 4.13 | Inactive |
| COc1ccccc1-c1nnc(-c2ccc(C(=O)N/N=C/c3ccc(O)cc3O)cc2)o1 [CHEMBL4087969] | 5.42 | Active |  |  |
| COc1ccccc1-c1nnc(-c2ccc(C(=O)N/N=C/c3ccccc3Cl)cc2)o1 [CHEMBL4088386] |  |  | 4.54 | Inactive |
| O/N=C1/c2ccccc2OC(c2cccc(Cl)c2)C1n1ccnc1 (stereo not shown) [CHEMBL4088885] |  |  | 4.58 | Inactive |
| COc1ccc(/C=N/NC(=O)c2ccc(-c3nnc(-c4ccccc4OC)o3)cc2)c(O)c1 [CHEMBL4090407] |  |  | 5.18 | Active |
| COc1ccccc1-c1nnc(-c2ccc(C(=O)N/N=C/c3cccnc3)cc2)o1 [CHEMBL4090822] |  |  | 4.33 | Inactive |
| COc1ccccc1-c1nnc(-c2ccc(C(=O)N/N=C/c3ccc(O)c(O)c3)cc2)o1 [CHEMBL4092817] | 6.02 | Active |  |  |
| COc1ccccc1-c1nnc(-c2ccc(C(=O)N/N=C/c3cccc(Cl)c3)cc2)o1 [CHEMBL4096109] |  |  | 4.68 | Inactive |

— paper PMC8196580, “Identification of Kaurane-Type Diterpenes as Inhibitors of Leishmania Pteridine Reductase I” (Molecules, 2021)
